Data: PubChem BioAssay (NCI)
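Grown in 96-well plates, cells were treated for 48 hours with each compound at five concentrations. Insufficient inhibition: endpoint recorded as highest concentration tested. GI50 marks 50% less growth. TGI denotes the concentration required for complete inhibition of growth.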

What was measured:
Test in all cases: NCI-60 cell line screen, 48 h
KM12 colon = system: KM12 colon
NCI-H460 lung = system: NCI-H460 lung
UACC-257 melanoma = system: UACC-257 melanoma
ACHN renal = system: ACHN renal
UO-31 renal = system: UO-31 renal
RPMI-8226 leukemia = system: RPMI-8226 leukemia
MOLT-4 leukemia = system: MOLT-4 leukemia
M14 melanoma = system: M14 melanoma
HOP-92 NSCLC = system: HOP-92 NSCLC
MCF7 breast = system: MCF7 breast
OVCAR-5 ovarian = system: OVCAR-5 ovarian
U251 CNS = system: U251 CNS
HT29 colon = system: HT29 colon
SNB-19 CNS = system: SNB-19 CNS
IGROV1 ovarian = system: IGROV1 ovarian
A549 NSCLC = system: A549 NSCLC
DU-145 prostate = system: DU-145 prostate
NCI-H23 lung = system: NCI-H23 lung
NCI-H226 lung = system: NCI-H226 lung
SNB-75 CNS = system: SNB-75 CNS
SN12C renal = system: SN12C renal
CAKI-1 renal = system: CAKI-1 renal
CCRF-CEM leukemia = system: CCRF-CEM leukemia
COLO 205 colon = system: COLO 205 colon
MDA-MB-435 = system: MDA-MB-435
HCT-116 colon = system: HCT-116 colon
SF-539 CNS = system: SF-539 CNS
SW-620 colon = system: SW-620 colon
HCC-2998 colon = system: HCC-2998 colon
SK-OV-3 ovarian = system: SK-OV-3 ovarian
PC-3 prostate = system: PC-3 prostate
HCT-15 colon = system: HCT-15 colon
TK-10 renal = system: TK-10 renal
BT-549 breast = system: BT-549 breast
MALME-3M melanoma = system: MALME-3M melanoma
A498 renal = system: A498 renal
UACC-62 melanoma = system: UACC-62 melanoma
EKVX NSCLC = system: EKVX NSCLC
RXF 393 renal = system: RXF 393 renal
HS 578T breast = system: HS 578T breast
786-0 renal = system: 786-0 renal
K-562 leukemia = system: K-562 leukemia
NCI/ADR-RES ovarian = system: NCI/ADR-RES ovarian
SF-268 CNS = system: SF-268 CNS
SF-295 CNS = system: SF-295 CNS
NCI-H522 lung = system: NCI-H522 lung
LOX IMVI melanoma = system: LOX IMVI melanoma
OVCAR-4 ovarian = system: OVCAR-4 ovarian
SK-MEL-5 melanoma = system: SK-MEL-5 melanoma
HOP-62 NSCLC = system: HOP-62 NSCLC

N#Cc1c(NC(=O)c2ccc(F)c(Cl)c2)sc2c1CCC(=O)C2 was tested, and the GI50 (KM12 colon) was 419 nM, the TGI (KM12 colon) was 1930 nM and the GI50 (NCI-H460 lung) was 1940 nM. It also gave a TGI (NCI-H460 lung) greater than 33300 nM, a GI50 (UACC-257 melanoma) of 1520 nM and a TGI (UACC-257 melanoma) of 4260 nM. It also gave a GI50 (ACHN renal) of 349 nM, a TGI (ACHN renal) of 1080 nM and a GI50 (UO-31 renal) of 298 nM. It also gave a TGI (UO-31 renal) of 1170 nM, a GI50 (RPMI-8226 leukemia) of 155 nM and a TGI (RPMI-8226 leukemia) of 684 nM. The GI50 (MOLT-4 leukemia) was 332 nM, the TGI (MOLT-4 leukemia) was greater than 26000 nM and the GI50 (M14 melanoma) was 365 nM. It also gave a TGI (M14 melanoma) of 1750 nM, a GI50 (HOP-92 NSCLC) of 231 nM and a TGI (HOP-92 NSCLC) of 724 nM. The GI50 (MCF7 breast) was 337 nM, the TGI (MCF7 breast) was 15000 nM and the GI50 (OVCAR-5 ovarian) was 728 nM. The TGI (OVCAR-5 ovarian) was 3020 nM, the GI50 (U251 CNS) was 353 nM and the TGI (U251 CNS) was 1360 nM. The GI50 (HT29 colon) was 347 nM, the TGI (HT29 colon) was 1310 nM and the GI50 (SNB-19 CNS) was 672 nM. It also gave a TGI (SNB-19 CNS) of 10400 nM, a GI50 (IGROV1 ovarian) of 592 nM and a TGI (IGROV1 ovarian) of 2380 nM. The GI50 (A549 NSCLC) was 2640 nM, the TGI (A549 NSCLC) was greater than 29200 nM and the GI50 (DU-145 prostate) was 4040 nM. It also gave a TGI (DU-145 prostate) greater than 100000 nM, a GI50 (NCI-H23 lung) of 371 nM and a TGI (NCI-H23 lung) of 2080 nM. It also gave a GI50 (NCI-H226 lung) of 2040 nM, a TGI (NCI-H226 lung) of 6250 nM and a GI50 (SNB-75 CNS) of 1420 nM. It also gave a TGI (SNB-75 CNS) of 4210 nM, a GI50 (SN12C renal) of 351 nM and a TGI (SN12C renal) of 1560 nM. For the same molecule, the GI50 (CAKI-1 renal) was 302 nM, the TGI (CAKI-1 renal) was 1130 nM and the GI50 (CCRF-CEM leukemia) was 216 nM. The TGI (CCRF-CEM leukemia) was greater than 24400 nM, the GI50 (COLO 205 colon) was 423 nM and the TGI (COLO 205 colon) was 1380 nM. It also gave a GI50 (MDA-MB-435) of 436 nM, a TGI (MDA-MB-435) of 2400 nM and a GI50 (HCT-116 colon) of 233 nM. The TGI (HCT-116 colon) was 1110 nM, the GI50 (SF-539 CNS) was 312 nM and the TGI (SF-539 CNS) was 1150 nM. The GI50 (SW-620 colon) was 406 nM, the TGI (SW-620 colon) was 1870 nM and the GI50 (HCC-2998 colon) was 1320 nM. The TGI (HCC-2998 colon) was 3330 nM, the GI50 (SK-OV-3 ovarian) was 1470 nM and the TGI (SK-OV-3 ovarian) was 3030 nM. For the same molecule, the GI50 (PC-3 prostate) was 237 nM, the TGI (PC-3 prostate) was 1350 nM and the GI50 (HCT-15 colon) was 368 nM. For the same molecule, the TGI (HCT-15 colon) was 2060 nM, the GI50 (TK-10 renal) was 440 nM and the TGI (TK-10 renal) was 2020 nM. For the same molecule, the GI50 (BT-549 breast) was 223 nM, the TGI (BT-549 breast) was 696 nM and the GI50 (MALME-3M melanoma) was 485 nM. The TGI (MALME-3M melanoma) was 1690 nM, the GI50 (A498 renal) was 2400 nM and the TGI (A498 renal) was 6440 nM. It also gave a GI50 (UACC-62 melanoma) of 426 nM, a TGI (UACC-62 melanoma) of 1940 nM and a GI50 (EKVX NSCLC) of 1060 nM. It also gave a TGI (EKVX NSCLC) of 4800 nM, a GI50 (RXF 393 renal) of 353 nM and a TGI (RXF 393 renal) of 1300 nM. For the same molecule, the GI50 (HS 578T breast) was 523 nM, the TGI (HS 578T breast) was 3760 nM and the GI50 (786-0 renal) was 389 nM. The TGI (786-0 renal) was 5780 nM, the GI50 (K-562 leukemia) was 301 nM and the TGI (K-562 leukemia) was greater than 100000 nM. It also gave a GI50 (NCI/ADR-RES ovarian) of 449 nM, a TGI (NCI/ADR-RES ovarian) greater than 100000 nM and a GI50 (SF-268 CNS) of 890 nM. The TGI (SF-268 CNS) was 6360 nM, the GI50 (SF-295 CNS) was 1120 nM and the TGI (SF-295 CNS) was 3890 nM. For the same molecule, the GI50 (NCI-H522 lung) was 200 nM, the TGI (NCI-H522 lung) was 671 nM and the GI50 (LOX IMVI melanoma) was 404 nM. It also gave a TGI (LOX IMVI melanoma) of 4440 nM, a GI50 (OVCAR-4 ovarian) of 578 nM and a TGI (OVCAR-4 ovarian) of 2000 nM. For the same molecule, the GI50 (SK-MEL-5 melanoma) was 1230 nM, the TGI (SK-MEL-5 melanoma) was 2590 nM and the GI50 (HOP-62 NSCLC) was 2510 nM. For the same molecule, the TGI (HOP-62 NSCLC) was greater than 28300 nM.
